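48-hour exposure; five concentrations; linearly interpolated endpoints. The concentration for 50% growth inhibition is given as GI50. TGI: concentration producing complete growth inhibition.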 *1 amine or outer side, *2 acyl side, *3 side chain or, on linkers, in order; H or OH if unused. Where a SMILES comes first, the peptide text is derived from it. CO = O=C([*:1])[*:2]
What was measured:
Assay in all cases: DTP human tumour cell line panel, 48 h
ACHN renal = tested on: ACHN renal
LOX IMVI melanoma = tested on: LOX IMVI melanoma
MOLT-4 leukemia = tested on: MOLT-4 leukemia
NCI-H522 lung = tested on: NCI-H522 lung
RXF 393 renal = tested on: RXF 393 renal
SW-620 colon = tested on: SW-620 colon
TK-10 renal = tested on: TK-10 renal
UACC-257 melanoma = tested on: UACC-257 melanoma
HS 578T breast = tested on: HS 578T breast
BT-549 breast = tested on: BT-549 breast

Structure (SMILES)	TGI (ACHN renal) [µM]	TGI (LOX IMVI melanoma) [µM]	TGI (MOLT-4 leukemia) [µM]	TGI (NCI-H522 lung) [µM]	TGI (RXF 393 renal) [µM]	TGI (SW-620 colon) [µM]	TGI (TK-10 renal) [µM]	TGI (UACC-257 melanoma) [µM]	TGI (HS 578T breast) [µM]	GI50 (ACHN renal) [µM]	GI50 (LOX IMVI melanoma) [µM]	GI50 (MOLT-4 leukemia) [µM]	GI50 (NCI-H522 lung) [µM]	GI50 (RXF 393 renal) [µM]	GI50 (SW-620 colon) [µM]	GI50 (TK-10 renal) [µM]	GI50 (UACC-257 melanoma) [µM]	GI50 (BT-549 breast) [µM]	TGI (BT-549 breast) [µM]	GI50 (HS 578T breast) [µM]
O=C1CC(c2ccccc2)NCN1 (stereo unspecified)	> 100	> 100	> 100	> 100	> 100	> 100	> 100	> 100												
COc1ccc(/C(Cl)=C(\C=O)c2cc(OC)c(OC)c(OC)c2)cc1OC	> 100	> 100	> 100	48.8	> 100	> 100	> 100	> 100	> 100											
NC(=S)N/N=C1\C(=O)N(c2cccc([N+](=O)[O-])c2)C(=O)C1C(=O)Nc1cccc([N+](=O)[O-])c1 (stereo unspecified)	> 100	> 100	> 100	> 100	> 100	> 100	> 100	> 100												
CCCN1C(=O)/C(=C/c2ccc(O)cc2)SC1=Nc1ccccc1	34.9	29.3	> 100	> 100	51.4	> 100	38.5	> 100		18.2	14.7	> 100	39.7	23.2	37.8	18.6	> 100			
CO/C=C/c1cc2c(cc1C(OC)OC)OCO2	> 100		> 100	> 100	> 100	> 100	> 100	> 100												
N#Cc1c(C(N)=O)ncn1Cc1ccccc1	> 100	> 100	> 100	> 100	> 100	> 100	> 100	> 100												
O=S(=O)(NCCNc1cc(-c2cn(-c3ccccc3)nc2-c2cccc(O)c2)ccn1)c1ccc(F)cc1	7.34		5.46	3.79	7.54	13.6	9.84	7.14	> 100	2.32		2.23	1.49	2.09	3.52	3.58	2.85	2.03	7.68	2.94
COc1ccc2c(c1)C(=O)c1c-2c(N2CCN(C(=O)CN(C)C)CC2)nc2ccccc12	33.2	33.6	24.8	30.6		26.3	37.6	30.3	31.9	16	12.3	5.23	13.7		10.3	14.1	12.1	14.5	33.5	11.6
Cn1cc(C(=O)/C(Cl)=C(\Cl)C(=O)O)c2ccccc21	> 100		> 100		> 100	> 100	> 100	> 100												
CCCCCCCCO/N=C\c1c2c(O)c3c(O)c(C)c4c(c3c1O)C(=O)C(C)(O/C=C\C(OC)C(C)C(OC(C)=O)C(C)C(O)C(C)C(O)C(C)/C=C\C=C(\C)C(=O)N2)O4 (stereo unspecified)	6.58	5.6			3.18	6.09		4.69	3.1	1.78	1.53			1.14	1.77		1.34			1.07
CCN(CC)CCCN1C(=O)c2c(c(C)c3c(oc4cc(O)ccc43)c2C)C1=O	3.05	3.3		3.66	3.24	3.25	3.28	3.62		1.68	1.79		1.84	1.54	1.73	1.77	1.81	14.2	29.6	
Cc1ccc(NC(=O)/C(=N/NC(=O)CC#N)C2C(=O)N(c3ccccc3)N=C2N)cc1C (stereo unspecified)	> 100	> 100	> 100	> 100	> 100	> 100	> 100	> 100												
COC1=CC(C)C2C[C@H]3O[C@H](O)C[C@H]4C(C)C(=O)C(O)C([C@@]2(C)C1=O)[C@@]34C (stereo partly specified)	> 100	> 100	> 100	> 100	> 100	> 100	> 100	> 100												
CC(C)C(NC(=O)C(CCCN=C(N)N)NC(=O)NC(Cc1ccccc1)C(=O)O)C(=O)NC(C=O)CCCN=C(N)N (stereo not drawn) ({Phe-CO}-Arg-Val-Arg-aldehyde; configuration not given here)	> 5	> 5		> 5		> 5	> 5	> 5	> 5	> 5	> 5		> 5		> 5	> 5	> 5	> 5	> 5	> 5
CC1(C)OC(=O)C=C(O)O1.CC1(C)OC(=O)C=C(O)O1.CCO.Oc1ccc2c(c1)CCC2.[Ti]	> 100	> 100	> 100	> 100	> 100	> 100	> 100	> 100		> 100	> 100	> 100	> 100	> 100	> 100	> 100	> 100			
O=C(CC1(O)C(=O)Nc2ccccc21)c1ccc(O)cc1O (stereo unspecified)	> 100	> 100	> 100	> 100	> 100	> 100	> 100	> 100												
COc1ccc(C2c3cc4c(cc3OC(O)(CO)C2C(=O)O)OCO4)c(OC)c1OC (stereo unspecified) (tested in a mixture with another compound)	> 100	> 100	> 100		> 100	> 100	> 100	> 100												
CCC[CH2][Sn]([CH2]CCC)([O]C(=O)c1cccc(F)c1F)[O][Sn]([CH2]CCC)([CH2]CCC)[O]C(=O)c1cccc(F)c1F	0.512	0.25	0.821	0.0697	0.105	0.239	0.562	0.728		0.214	0.111	0.084	0.01	0.0216	0.103	0.206	0.222	0.121	0.369	

Structure (SMILES)	TGI (ACHN renal) [µM]	TGI (LOX IMVI melanoma) [µM]	TGI (MOLT-4 leukemia) [µM]	TGI (NCI-H522 lung) [µM]	TGI (RXF 393 renal) [µM]	TGI (SW-620 colon) [µM]	TGI (TK-10 renal) [µM]	TGI (UACC-257 melanoma) [µM]	TGI (HS 578T breast) [µM]	GI50 (ACHN renal) [µM]	GI50 (LOX IMVI melanoma) [µM]	GI50 (MOLT-4 leukemia) [µM]	GI50 (NCI-H522 lung) [µM]	GI50 (RXF 393 renal) [µM]	GI50 (SW-620 colon) [µM]	GI50 (TK-10 renal) [µM]	GI50 (UACC-257 melanoma) [µM]	GI50 (BT-549 breast) [µM]	TGI (BT-549 breast) [µM]	GI50 (HS 578T breast) [µM]
COc1cc(/C=C/C(=O)CC(=O)/C=C/c2ccc(OC(=O)CCNC34CC5CC(CC(C5)C3)C4)c(OC)c2)ccc1OC(=O)CCNC12CC3CC(CC(C3)C1)C2	23.6	4.14	16.2	16.1		6.03	22.6	19.4	9.17	11	1.96	3.08	4.27		2.43	7.09	4.24	2.4	7.67	2.85
O[C@H]1[C@H]2[C@H](O)CCCN2C[C@H]1O	> 100	> 100	> 100	> 100	> 100	> 100	> 100	> 100												
C/C=C/CP(=O)(c1ccccc1)c1ccccc1	> 100	> 100	> 100	> 100	> 100	> 100	> 100	> 100												
CCC(=O)Nc1ccc2c(c1)CN1C(=O)c3ccccc3C1=N2	> 100	> 100	> 100	> 100		> 100	> 100	> 100	> 100	> 100	> 100	> 100	> 100		> 100	> 100	> 100	> 100	> 100	> 100
CC1=C([Se]CC(OC(=O)[C@@H](CSSC(C)(C)C)NC(=O)C(C)(C)C)C(=O)NCCCCCC(=O)OCc2ccccc2)C(=O)c2ccccc2C1=O (stereo partly specified)	4.94	7.62	9.52	3.21		5.2	4.43		5.56	2.16	2.59	3.24	1.69		2.31	2.42		1.76	3.15	2.18
COc1ccc2c(c1)/C(=C/c1c(-c3ccc(C)cc3)nc3sc(C)cn13)C(=O)N2				> 100		> 100	> 100	57.1	> 100				13.5		16.8	7.93	16.8			19.8
NC1=NN(c2ccccc2)C(=O)C1C(=O)C(=O)Nc1cccc(C(F)(F)F)c1 (stereo unspecified)	> 100	> 100	> 100	> 100		> 100	> 100	> 100												
C/C(=N\[N+](C)(C)C)C(c1ccccc1)C1(c2ccccc2)C(c2ccccc2)=C1c1ccccc1 (stereo unspecified)	> 100	> 100	> 100	> 100	73	> 100	> 100	> 100												
O=C(/C=C/c1ccc2c(c1)OCO2)c1ccccc1	40.9	25.9	> 100		28.7	14.5		39.5	45.6	17.5	12.6	8.09		14.3	3.72		18.6			11.8
CCOC(=O)c1ccc(C(O)CC(=O)OC(C)(C)C)[nH]1 (stereo unspecified)	> 100	86.8	> 100	25.9		> 100	> 100	> 100	> 100	41.5	25.1	17.2	9.5		50.1	58.4	40.8			48.3
C[C@]12CC[C@H]3[C@@H](CC=C4C[C@@H](O)CC[C@@]43C)[C@@H]1C/C(=C\c1cccc(OCCCn3ccnc3)c1)[C@@H]2O	31.3	39.6	32.2	27.7	20.8	26.8	31.3	29.2	23.4	13.9	15.7	6.55	14.6	4.7	10.6	16.6	13.1			5.16
CC1(C)CC2=NOS3=C2C(=NO3)C1c1ccccn1 (stereo unspecified)	> 100	> 100	95.6	90.2		> 100	> 100	> 100	> 100											
CC(=O)[CH-]C(C)=O.CC(=O)[CH-]C(C)=O.CC(=O)[CH-]C(C)=O.[Cl-].[Hf+4]	> 100	> 100	> 100	> 100	> 100	> 100	> 100	> 100		> 100	> 100	> 100	> 100	> 100	> 100	> 100	> 100			
CC1CC(C)C(=O)C(C(=O)CC2CC(=O)NC2=O)C1 (stereo unspecified)	> 100	> 100		> 100	> 100	> 100	> 100	> 100												
O=C(CCc1ccc(O)c(O)c1)c1ccc(O)c(O)c1O	28.4	> 100	89.5	41.1		> 100	47.3	> 100	> 100											
O=C(Nc1ccc(N=Nc2ccccc2)cc1)Sc1ccccc1C(=O)O	> 100	> 100	> 100	> 100	> 100	> 100	> 100	> 100												
COc1cc2c(cc1OCCCCCN1CCN(c3cc(=O)oc4c(C)c(OC)ccc34)CC1)N=C[C@@H]1CCCN1C2=O	0.256		0.0106	< 0.0352	< 0.0127	4.26	13.3		0.791	0.0434		< 0.01	< 0.01	< 0.01	< 0.0108	< 0.0129		< 0.0119	0.155	< 0.0198
